{"source": "ChEMBL document CHEMBL1130952", "about": "“NMR and topochemical studies of peptidomimetic HIV-I protease inhibitors containing a cis-epoxide amide isostere” (Bioorg Med Chem Lett, 1998)", "key": {"[1]": {"molecular_target": "Human immunodeficiency virus type 1 protease (Human immunodeficiency virus 1) (UniProt Q72874)", "test": "Second order rate constant was determined for the irreversible inhibition of HIV-1 protease; value ranges from 10e8- 10e10"}, "[2]": {"molecular_target": "Human immunodeficiency virus type 1 protease (Human immunodeficiency virus 1, UniProt Q72874)", "test": "Compound was tested for 50% irreversible inhibition of HIV-1 protease; value ranges from 10-50"}}, "note": "pIC50: −log10 of the molar value.", "data": [{"smiles": "CONC(=O)[C@H](NC(=O)C[C@@H]1O[C@@H]1[C@H](Cc1ccccc1)NC(=O)[C@H](CC(N)=O)NC(=O)c1ccc2ccccc2n1)C(C)C", "values": [{"measurement": "K inact/Ki", "setting": "[1]", "result": "1.67e+06", "unit": "M⁻¹ s⁻¹"}, {"measurement": "pIC50", "setting": "[2]", "result": 8.00}]}, {"smiles": "CC(C)[C@@H](NC(=O)C[C@@H]1O[C@@H]1[C@H](Cc1ccccc1)NC(=O)[C@H](CC(N)=O)NC(=O)c1ccc2ccccc2n1)c1ccccc1", "values": [{"measurement": "K inact/Ki", "setting": "[1]", "result": "1.67e+06", "unit": "M⁻¹ s⁻¹"}, {"measurement": "pIC50", "setting": "[2]", "result": 8.00}]}, {"smiles": "CC(C)[C@H](Cc1ccccc1)NC(=O)C[C@@H]1O[C@@H]1[C@H](Cc1ccccc1)NC(=O)[C@H](CC(N)=O)NC(=O)c1ccc2ccccc2n1", "values": [{"measurement": "K inact/Ki", "setting": "[1]", "result": "1.67e+06", "unit": "M⁻¹ s⁻¹"}, {"measurement": "pIC50", "setting": "[2]", "result": 8.00}]}]}
